Values after ≈ are worked out from the molar mass of the structure shown. Read-outs that look alike come from different tables or passages of the source. No end group written: not given here.
Tests used:
S. aureus TISTR 517 [1] = experiment: Agar well diffusion assay; type: cell-based, Staphylococcus aureus; details: mean ± SD, n = 3
Protocol: (§1) WUL10 colony was inoculated in 50 mL of half formula of Luria-Bertani (half LB) broth (Titan Biotech Ltd., Rajasthan, India), and incubated at 30 °C, 150 rpm overnight. The culture was adjusted the turbidity equivalent to 0.5 McFarland standard by 0.85% NaCl, and then, 2 mL of this preculture was transferred in 200 mL of half LB broth. The culture was shaken at 30 °C, 150 rpm for 7 days, and an aliquot of samples (2 mL) was collected at different time interval. One mL of sample was measured the cell growth by spectrophotometer at 625 nm (Thermo Fisher Scientific, Waltham, MA, USA). The remaining sample was centrifuged at 10,000× g, 4 °C for 30 min (Sigma-Aldrich Co., St. Louis, MO, USA), and the CFS was examined for the antimicrobial activity against all indicator strains by agar well diffusion assay. Three replicates of experiments were carried out, and the zone of inhibition was reported as mean ± SD.
(§2) The colonies of indicator strains were inoculated in 9 mL of sterile 0.85% NaCl, and the cell suspensions were adjusted the turbidity comparably to 0.5 McFarland standard. They were swabbed onto the MH agar, and the wells were punched onto the agar using a pipette tip. One hundred µL of CSF or purified substance of WUL10 was loaded into each well, and the plates were incubated at 37 °C for 24 h. […] The experiments were performed in three independent experiments, and the inhibition zone was measured and reported as mean ± SD [21].

MRSA isolate 1096 [2] = experiment: Agar well diffusion assay; type: cell-based, Staphylococcus aureus; details: Table 1 experiment, mean ± SD, n = 3
Protocol: as §1, §2

MRSA isolate 142 [3] = experiment: Agar well diffusion assay; type: cell-based, Staphylococcus aureus; details: Table 1 experiment, mean ± SD, n = 3
Protocol: as §1, §2

MRSA isolate 2468 [4] = experiment: Agar well diffusion assay; type: cell-based, Staphylococcus aureus; details: mean ± SD, n = 3
Protocol: as §1, §2

S. aureus TISTR 517 [5] = experiment: microbe, parasite or virus in culture; type: cell-based, Staphylococcus aureus
Protocol: (§3) Determination of MIC by broth microdilution was followed the Clinical and Laboratory Standard Institute (CLSI) guidelines. Cation-adjusted Mueller–Hinton broth (CAMHB) was used as a diluent. The purified substance (100 μL) was prepared by making the 2-fold dilution in the range of 0.125–32 μg/mL, and an aliquot (10 μL) of diluted suspension of the indicator strains (5 × 10^5 CFU/mL) was added into each well. Indicator strains without sample were a positive control, while CAMHB alone was the negative control. The 96-well plates were incubated at 37 °C for 24 h and measured the bacterial growth. […] MBC was determined by further spreading 10 µL of sample in each well on MH agar and incubated at 37 °C overnight.
(§4) The peptide sequence of the purified substance of WUL10 was analyzed by the Q-Exactive HF LC-MS/MS Orbitrap system. Briefly, the protonated peptides were first desalted on-line on a reverse-phase C18 PepMap 100 trapping column before being resolved onto a C18 PepMap 100 capillary column with a 70 min gradient of 0.1% HCO2H/H2O (mobile phase (MP): A) and 0.1% HCO2H/CH3CN (MP: B) at a flow rate of 300 nL/min. Peptides were analyzed by applying a data-dependent Top5 acquisition mode followed by a higher-energy collisional dissociation (HCD) at collision energy of 28. Full-scan (MS) mass spectra were acquired from m/z 400 to 2000 with an AGC target set at 3 × 10^6 ions and a resolution of 120,000. MS/MS scan was initiated when the ACG target reached 2 × 10^5 ions and a resolution of 30,000. The raw LC-MS file from LC-MS/MS was imported to PeakX studio 10.0 (Bioinformatics Solutions Inc., Waterloo, CA, USA). The peptide ion intensity with +2 to +5 charge states was automated de novo peptide sequenced with default parameters with minor modifications. Briefly, mass error tolerance for MS and MS/MS were 15 ppm and 0.1 Da, respectively. HCD-fragmentation series on b- and y-ion series were used to predict the peptide sequence. The confidence score was set at the high level of confidence to obtain a reliable set of high-precision peptides. The acceptable de novo peptide sequences were achieved by filtering average local confidence (ALC) to ≥50%. The acceptable peptide sequences with an average local confidence (ALC) threshold of ≥50% were submitted to the antimicrobial peptide scanner to analyze the probability of antimicrobial peptides. A number of resulting peptides (18 synthetic peptides) were synthesized by Kelowna International Scientific Inc. (Taipei City, Taiwan) with purity of more than 85%, and they were prepared in a 2-fold dilution with CAMHB before examining the antimicrobial activity by broth microdilution. MIC and MBC were measured from 3 independent replicates.

MRSA isolate 1096 [6] = experiment: Broth microdilution MIC and MBC (CLSI); type: cell-based; details: Staphylococcus aureus
Protocol: as §3

MRSA isolate 142 [7] = experiment: Broth microdilution MIC and MBC (CLSI); type: cell-based; details: Staphylococcus aureus
Protocol: as §3

MRSA isolate 2468 [8] = experiment: microbe, parasite or virus in culture; type: cell-based, Staphylococcus aureus
Protocol: as §3, §4

[9] = antibiotic 30 µg, Table 1 experiment
[10] = antibiotic 30 µg, Table 4 experiment
[11] = antibiotic 1 µg, Table 1 experiment
[12] = broth microdilution, CAMHB, 37 °C 24 h, n = 3

For CO[C@@]1(NC(=O)Cc2cccs2)C(=O)N2C(C(=O)O)=C(COC(N)=O)CS[C@@H]21 [Cefoxitin], the “Zone of Inhibition” value (S. aureus TISTR 517 [1]; [9]) was 32.68 ± 0.15 mm, the “Zone of Inhibition” value (S. aureus TISTR 517 [1]; [10]) was 32.77 ± 0.55 mm and the “Zone of Inhibition” value (MRSA isolate 1096 [2]; antibiotic 30 µg) was 0.00 ± 0.00 mm. For the same compound, the “Zone of Inhibition” value (MRSA isolate 142 [3]; antibiotic 30 µg) was 0.00 ± 0.00 mm, the “Zone of Inhibition” value (MRSA isolate 2468 [4]; [9]) was 0.00 ± 0.00 mm and the MIC (S. aureus TISTR 517 [5]; Staphylococcus aureus, TISTR517, broth microdilution, CAMHB, 37 °C 24 h, n = 3, read-out: MIC) was 2 µg/mL (≈ 4.68 µM).

Cc1onc(-c2ccccc2)c1C(=O)N[C@@H]1C(=O)N2[C@@H]1SC(C)(C)[C@@H]2C(=O)O [Oxacillin] was tested, and the “Zone of Inhibition” value (S. aureus TISTR 517 [1]; [11]) was 29.29 ± 0.39 mm, the “Zone of Inhibition” value (MRSA isolate 1096 [2]; antibiotic 1 µg) was 0.00 ± 0.00 mm and the “Zone of Inhibition” value (MRSA isolate 142 [3]; antibiotic 1 µg) was 0.00 ± 0.00 mm. The “Zone of Inhibition” value (MRSA isolate 2468 [4]; [11]) was 0.00 ± 0.00 mm.

With CN[C@H](CC(C)C)C(=O)N[C@H]1C(=O)N[C@@H](CC(N)=O)C(=O)N[C@H]2C(=O)N[C@H]3C(=O)N[C@H](C(=O)N[C@H](C(=O)O)c4cc(O)cc(O)c4-c4cc3ccc4O)[C@H](O)c3ccc(c(Cl)c3)Oc3cc2cc(c3O[C@@H]2O[C@H](CO)[C@@H](O)[C@H](O)[C@H]2O[C@H]2C[C@](C)(N)[C@H](O)[C@H](C)O2)Oc2ccc(cc2Cl)[C@H]1O [Vancomycin] the “Zone of Inhibition” value (MRSA isolate 2468 [4]; [10]) was 26.75 ± 0.18 mm, the MBC (MRSA isolate 1096 [6]) was 2 µg/mL (≈ 1.38 µM) and the MIC (MRSA isolate 1096 [6]; 24 h) was 2 µg/mL (≈ 1.38 µM). The MBC (MRSA isolate 142 [7]) was 2 µg/mL (≈ 1.38 µM), the MIC (MRSA isolate 142 [7]; 24 h) was 2 µg/mL (≈ 1.38 µM) and the MBC (S. aureus TISTR 517 [5]; Staphylococcus aureus, TISTR517) was 2 µg/mL (≈ 1.38 µM). For the same compound, the MIC (S. aureus TISTR 517 [5]; Staphylococcus aureus, TISTR517, 24 h) was 2 µg/mL (≈ 1.38 µM), the MBC (MRSA isolate 2468 [8]; Staphylococcus aureus) was 2 µg/mL (≈ 1.38 µM) and the MIC (MRSA isolate 2468 [8]; Staphylococcus aureus, 24 h) was 2 µg/mL (≈ 1.38 µM).

In the case of KVLVKYLGGLLKLAALMV [synthetic peptide], the MIC (S. aureus TISTR 517 [5]; [12]) was 16 µg/mL and the MIC (MRSA isolate 2468 [8]; [12]) was 16 µg/mL.

— article PMC9228811, “Identification and Characterization of a Potential Antimicrobial Peptide Isolated from Soil Brevibacillus sp. WUL10 and Its Activity against MRSA Pathogens” (Tropical Medicine and Infectious Disease, 2022)
